From patent publication US9440969B2, “Compounds and methods for kinase modulation, and indications therefor” (PLEXXIKON INC., priority 2009, dated 2016)

Test: Relative solubility by turbidity in aqueous buffers (pH 1.5, 4.5, 6.8, 7.4)
Format: physicochemical
Conditions: for turbidity threshold (L, M, H) 1.4: pH 1.5 buffer (SGF); for turbidity threshold (L, M, H) 4.5: pH 4.5 buffer (SIF); for turbidity threshold (L, M, H) 6.8: pH 6.8 buffer (SIF); for turbidity threshold (L, M, H) 7.4: pH 7.4 buffer (HEPES)
Experimental: As an indication of relative solubility, the turbidity of compounds in aqueous solutions is assessed. To assess possible compound properties in different physiological compartments, such as stomach, intestine, and blood, a series of aqueous buffers with varying pH is used. Thus each compound is diluted into four different physiologically relevant buffers and solution turbidity is measured by spectrophotometry.
Compounds are dissolved at a concentration of 25 mM in dimethyl sulfoxide, then serially diluted 1:1 into a 96 well plate, diluting 10 times in pure dimethyl sulfoxide, with the final well of each row a dimethyl sulfoxide blank. In an assay plate, 99 μL of appropriate buffer is added to each well, and 1 μL of each sample dilution is added to the buffer, achieving a range of final total concentrations in aqueous solutions having different pH. The buffers used are Simulated Gastric Fluid (SGF-pH 1.5) 0.5M NaCl, pH 1.5; Simulated Intestinal fluid (SIF-pH 4.5 and pH 6.8) 0.05M NaH2PO4, pH 4.5 and 6.8; and Hepes Buffer (HEPES-pH 7.4) 10 mM HEPES, 150 mM NaCl, pH 7.4. Control compounds pyrene, estriol and propranolol HCl are also assessed. Plates are spun and then mixed for 1 minute, and the absorbance is read using a Tecan Safire II to read wavelengths in the visible range (490, 535, and 650 nm) at four locations per well, reflecting the degree of turbidity present. The average optical density for each wavelength in each well is graphed vs. compound concentration, and the concentration at which the curve crosses a threshold O.D. of 0.01 for each wavelength is reported as the endpoint turbidity assay result. The average of the three wavelengths is used to compare turbidity of compounds. Compounds are considered to have low solubility if the threshold concentration is <31.3 μM, moderate solubility if the threshold concentration is 31.3 μM to 250 μM, and high solubility if the threshold concentration is >250 μM.
The following table indicates the relative solubility (L=low, M=moderate, H=high) based on turbidity threshold concentration at each pH for exemplary compounds according to the invention: […]

| SMILES | turbidity threshold (L, M, H) 1.4 | turbidity threshold (L, M, H) 4.5 | turbidity threshold (L, M, H) 6.8 | turbidity threshold (L, M, H) 7.4 |
| --- | --- | --- | --- | --- |
| CCCS(=O)(=O)Nc1ccc(F)c(C(=O)c2c[nH]c3ncc(-c4ccc5cnn(C)c5c4)cc23)c1F [P-0027, Propane-1-sulfonic acid {2,4-difluoro-3-[5-(1-methyl-1H-indazol-6-yl)-1H-pyrrolo[2,3-b]pyridine-3-carbonyl]-phenyl}-amide] | L (low solubility if the threshold concentration is <31.3 μM) | L (low solubility if the threshold concentration is <31.3 μM) | L (low solubility if the threshold concentration is <31.3 μM) | L (low solubility if the threshold concentration is <31.3 μM) |
| CCCS(=O)(=O)Nc1ccc(F)c(C(=O)c2c[nH]c3ncc(-c4ccc5c(cnn5C)c4)cc23)c1F [P-0028, Propane-1-sulfonic acid {2,4-difluoro-3-[5-(1-methyl-1H-indazol-5-yl)-1H-pyrrolo[2,3-b]pyridine-3-carbonyl]-phenyl}-amide] | L (low solubility if the threshold concentration is <31.3 μM) | L (low solubility if the threshold concentration is <31.3 μM) | L (low solubility if the threshold concentration is <31.3 μM) | L (low solubility if the threshold concentration is <31.3 μM) |
| CCCS(=O)(=O)Nc1ccc(F)c(C(=O)c2c[nH]c3ncc(-c4cnc(NC5CC5)nc4)cc23)c1F [P-1504, Propane-1-sulfonic acid {3-[5-(2-cyclopropylamino-pyrimidin-5-yl)-1H-pyrrolo[2,3-b]pyridine-3-carbonyl]-2,4-difluoro-phenyl}-amide] | L (low solubility if the threshold concentration is <31.3 μM) | M (moderate solubility if the threshold concentration is 31.3 μM to 250 μM) | M (moderate solubility if the threshold concentration is 31.3 μM to 250 μM) | M (moderate solubility if the threshold concentration is 31.3 μM to 250 μM) |
| CCCS(=O)(=O)Nc1ccc(F)c(C(=O)c2c[nH]c3ncc(-c4cnc(NCCOC)nc4)cc23)c1F [P-1505, Propane-1-sulfonic acid (2,4-difluoro-3-{5-[2-(2-methoxy-ethylamino)-pyrimidin-5-yl]-1H-pyrrolo[2,3-b]pyridine-3-carbonyl}-phenyl)-amide] | L (low solubility if the threshold concentration is <31.3 μM) | L (low solubility if the threshold concentration is <31.3 μM) | L (low solubility if the threshold concentration is <31.3 μM) | M (moderate solubility if the threshold concentration is 31.3 μM to 250 μM) |
| COCCNc1ncc(-c2cnc3[nH]cc(C(=O)c4c(F)ccc(NS(=O)(=O)c5cc(F)ccc5F)c4F)c3c2)cn1 [P-1507, N-(2,4-Difluoro-3-{5-[2-(2-methoxy-ethylamino)-pyrimidin-5-yl]-1H-pyrrolo[2,3-b]pyridine-3-carbonyl}-phenyl)-2,5-difluoro-benzenesulfonamide] | L (low solubility if the threshold concentration is <31.3 μM) | L (low solubility if the threshold concentration is <31.3 μM) | L (low solubility if the threshold concentration is <31.3 μM) | L (low solubility if the threshold concentration is <31.3 μM) |
| CCCS(=O)(=O)Nc1ccc(F)c(C(=O)c2c[nH]c3ncc(-c4cnc(N5CCC5)nc4)cc23)c1F [P-1512, Propane-1-sulfonic acid {3-[5-(2-azetidin-1-yl-pyrimidin-5-yl)-1H-pyrrolo[2,3-b]pyridine-3-carbonyl]-2,4-difluoro-phenyl}-amide] | L (low solubility if the threshold concentration is <31.3 μM) | L (low solubility if the threshold concentration is <31.3 μM) | L (low solubility if the threshold concentration is <31.3 μM) | L (low solubility if the threshold concentration is <31.3 μM) |
